Consider two molecules from ChEMBL document CHEMBL2016506, “Glucose-aspirin: Synthesis and in vitro anti-cancer activity studies” (Bioorg Med Chem Lett, 2012).

A word on the IC50: it is the point on the concentration scale where inhibition reaches its midpoint. High values mean lower potency, low ones higher potency.

Activity calls are given as the source filed them. The calls are words filed in the database; no cut-off is given here.

Series [1] concerns PC-3. The series can be described thus: Cytotoxicity against human PC3 cells after 24 hrs by alamar blue assay. The class given is functional, cell-based. The note with it: PC-3, 24 h.
For series [2], the system named is PC-3. As to the kind of experiment: Cytotoxicity against human PC3 cells after 48 hrs by alamar blue assay. It is filed as functional, cell-based. The note with it: PC-3, 48 h.
Series [3] has as its system SK-BR-3. As to the kind of experiment: Growth inhibition of human SKBR3 cells at 2 x 10 '-3 M to 1.5 x 10^-4 M after 24 hrs by alamar blue assay. It is filed as functional.
In series [4] the test system is PANC-1. As to the kind of experiment: Growth inhibition of human PANC1 cells at 2 x 10 '-3 M to 1.5 x 10^-4 M after 24 hrs by alamar blue assay. The class given is functional. In general terms: Alamar Blue is a resazurin reagent that responds to reducing activity.
In series [5] the test system is PC-3. The series can be described thus: Growth inhibition of human PC3 cells at 2 x 10 '-3 M to 1.5 x 10^-4 M after 24 hrs by alamar blue assay. The class given is functional.
Series [6] concerns SK-BR-3. The series can be described thus: Growth inhibition of human SKBR3 cells at 300 uM after 48 hrs by alamar blue assay. It is filed as functional.
Series [7] concerns PANC-1. The series can be described thus: Growth inhibition of human PANC1 cells at 300 uM after 48 hrs by alamar blue assay. The class given is functional.
The test system of series [8] is PC-3. As to the kind of experiment: Growth inhibition of human PC3 cells at 300 uM after 48 hrs by alamar blue assay. It is filed as functional.
Series [9] relates to WI-38. The series can be described thus: Cytotoxicity against human WI38 cells at 2 x 10^-3 to 3 x 10^-4 M after 24 hrs by alamar blue assay. The class given is cell-based. The note with it: wi-38, 24 h.
In series [10] the test system is WI-38. As to the kind of experiment: Cytotoxicity against human WI38 cells at 2 x 10^-3 to 3 x 10^-4 M after 48 hrs by alamar blue assay. The note with it: wi-38, 48 h. It is filed as cell-based.
The nature of series [11]: Drug metabolism in human serum assessed as compound hydrolysis after 3 hrs by HPLC analysis. The class given is ADME, cell-free. To be noted: read-out: Drug metabolism.
Series [12] can be described thus: Aqueous solubility of the compound in 43 ml water. It is filed as physicochemical. To be noted: buffer.
In series [13] the test system is PANC-1. As to the kind of experiment: Growth inhibition of human PANC1 cells at 2 x 10^-3 to 1.5 x 10^-4 M after 48 hrs by alamar blue assay. The class given is functional, cell-based.
Series [14] concerns SK-BR-3. The series can be described thus: Growth inhibition of human SKBR3 cells at 2 x 10^-3 to 1.5 x 10^-4 M after 48 hrs by alamar blue assay. The class given is functional, cell-based.
Series [15] concerns PC-3. The series can be described thus: Growth inhibition of human PC3 cells at 2 x 10^-3 to 1.5 x 10^-4 M after 48 hrs by alamar blue assay. The class given is functional, cell-based.
The subject of series [16] is SK-BR-3. The series can be described thus: Cytotoxicity against human SKBR3 cells after 24 hrs by alamar blue assay. The note with it: SK-BR-3, 24 h. It is filed as functional, cell-based.
Series [17] deals with WI-38. The series can be described thus: Cytotoxicity against human WI38 cells after 24 hrs by alamar blue assay. It is filed as cell-based. The note with it: WI-38, 24 h.
Series [18] concerns PANC-1. As to the kind of experiment: Cytotoxicity against human PANC1 cells after 24 hrs by alamar blue assay. It is filed as functional, cell-based. To be noted: PANC-1, 24 h.
The test system of series [19] is SK-BR-3. The series can be described thus: Cytotoxicity against human SKBR3 cells after 48 hrs by alamar blue assay. The class given is functional, cell-based. The note with it: SK-BR-3, 48 h.
The subject of series [20] is WI-38. The series can be described thus: Cytotoxicity against human WI38 cells after 48 hrs by alamar blue assay. The class given is cell-based. To be noted: WI-38, 48 h.
Series [21] has as its system PANC-1. The series can be described thus: Cytotoxicity against human PANC1 cells after 48 hrs by alamar blue assay. To be noted: PANC-1, 48 h. It is filed as functional, cell-based.
The subject of series [22] is SK-BR-3. As to the kind of experiment: Ratio of IC50 for aspirin to compound IC50 for human SKBR3 cells. It is filed as functional.
For series [23], the system named is PANC-1. As to the kind of experiment: Ratio of IC50 for aspirin to compound IC50 for human PANC1 cells. The class given is functional.
For series [24], the system named is PC-3. The series can be described thus: Ratio of IC50 for aspirin to compound IC50 for human PC3 cells. The class given is functional.
The test system of series [25] is WI-38. The series can be described thus: Cytotoxicity against human WI38 cells at 300 uM after 24 hrs by alamar blue assay. The class given is cell-based. The note with it: wi-38, 24 h.
In series [26] the test system is SK-BR-3. As to the kind of experiment: Growth inhibition of human SKBR3 cells at 150 uM after 48 hrs by alamar blue assay. It is filed as functional. The note with it: SK-BR-3, 48 h, read-out: GI.
Series [27] has as its system PANC-1. The series can be described thus: Growth inhibition of human PANC1 cells at 150 uM after 48 hrs by alamar blue assay. The note with it: PANC-1, 48 h, read-out: GI. It is filed as functional.
Series [28] deals with PC-3. As to the kind of experiment: Growth inhibition of human PC3 cells at 150 uM after 48 hrs by alamar blue assay. The class given is functional. The note with it: PC-3, 48 h, read-out: GI.
In series [29] the test system is WI-38. The series can be described thus: Growth stimulation of human WI38 cells at 2 x 10^-3 to 3 x 10^-4 M after 24 to 48 hrs by alamar blue assay. It is filed as functional, cell-based.
Series [30] deals with PC-3. As to the kind of experiment: Growth stimulation of human PC3 cells at 2 x 10^-3 M after 24 to 48 hrs by alamar blue assay. It is filed as functional, cell-based.
Series [31] is described as follows: Aqueous solubility of the compound in 300 ml water. To be noted: buffer. The class given is physicochemical.
Series [32] concerns SK-BR-3. The series can be described thus: Growth inhibition of human SKBR3 cells at 300 uM after 24 hrs by alamar blue assay. The note with it: SK-BR-3, 24 h, read-out: GI. The class given is functional.
Series [33] concerns PANC-1. As to the kind of experiment: Growth inhibition of human PANC1 cells at 300 uM after 24 hrs by alamar blue assay. The class given is functional. The note with it: PANC-1, 24 h, read-out: GI.
The test system of series [34] is PC-3. The series can be described thus: Growth inhibition of human PC3 cells at 300 uM after 24 hrs by alamar blue assay. It is filed as functional. To be noted: PC-3, 24 h, read-out: GI.

Consider `CC(=O)Oc1ccccc1C(=O)O` [ASPIRIN], for which the IC50 in the series on PC-3 [1] is 771 µM; in the series with PC-3 [2] it was 782 µM. For the same molecule, the “growth inhibition (GI)” value in the series with SK-BR-3 [3], with PANC-1 [4], in the series on PC-3 [5], in the series on PANC-1 [13], with SK-BR-3 [14] and with PC-3 [15] was “inactive” throughout. For the same molecule, the “growth inhibition (GI)” value in the series with SK-BR-3 [6], in the series on PANC-1 [7] and in the series on PC-3 [8] was “Active” each time. For the same molecule, the Activity entry in the series with WI-38 [9] and in the series with WI-38 [10] was “Toxic” each time. In addition, the metabolised at 3 h in series [11] was determined as 47%. In addition, in series [12], the solubility entry is “soluble”.

In the case of `CC(=O)Oc1ccccc1C(=O)O[C@@H]1[C@@H](O)[C@@H](O)O[C@H](CO)[C@H]1O`, the IC50 amounted to 201 µM in the series with SK-BR-3 [16]; 376 µM in the series on WI-38 [17]; 399 µM in the series with PANC-1 [18]; 83.2 µM in the series with PC-3 [1]; 87.8 µM in the series with SK-BR-3 [19]; 310 µM with WI-38 [20]. Besides, the half-inhibitory concentration (IC50) worked out at 90.5 µM with PANC-1 [21] and 81.4 µM in the series with PC-3 [2]. The “Ratio IC50” value in the series with SK-BR-3 [22], with PANC-1 [23] and in the series on PC-3 [24] was 8 in each case. Besides, the “growth inhibition (GI)” value with SK-BR-3 [3], in the series with PANC-1 [4] and with PC-3 [5] was 20% throughout. Also, in the series with WI-38 [25], the Activity entry was “Non-toxic”. The inhibition of growth at 300 µM was found to be 90% in the series with SK-BR-3 [6] (SK-BR-3, 48 h, read-out: GI); 70% with PANC-1 [7] (PANC-1, 48 h, read-out: GI); 85% with PC-3 [8] (PC-3, 48 h, read-out: GI); 60% in the series on SK-BR-3 [32]; 60% in the series with PANC-1 [33]; 60% in the series on PC-3 [34]. The inhibition of growth at 150 µM worked out at 60% in the series with SK-BR-3 [26], 60% in the series with PANC-1 [27] and 65% in the series on PC-3 [28]. In addition, the result in the series with WI-38 [29] and with PC-3 [30] was Active. Besides, the metabolised at 3 h in series [11] worked out at 27%. Moreover, the solubility result in [31] is on record as “soluble”.
